Source: US6815546B2, “Analogues of camptothecin, their use as medicaments and the pharmaceutical compositions containing them” (Societe de Recherches et d'Applications Scientifiques …, priority 1995, dated 2004)

Tests used:
Format in all cases: cell-based
[1] = tested on: A549 (human lung carcinoma); assay: Test on cell proliferation (MTT test), A549; settings: 72 hours
Description: (§1) a. Eight tumoral cell lines are used in this study: L1210 (mouse lymphocytic leukemia), HCT15 and LOVO (cell lines of human colon adenocarcinoma), A549 (human lung carcinoma), A172, U373 et U87 (human glioblastoma). All these lines are obtained from the American Type Culture Collection (ATCC), Rockville, Md. The L1210 cell cultures in suspension are cultured in Dulbecco's modified Eagle's medium (DMEM) (BioWhitaker, Verviers, Belgium) together with 10% of foetal calf serum inactivated by heating, 2 mM of glutamine, 50 μg/ml of penicillin and 50 μg/ml of streptomycin. The HT29 cells are cultured in mono-layer cultures in a McCoy 5a medium (Gibco, Paisley, United Kingdom) together with 10% of foetal calf serum inactivated by heat plus 2 mM of glutamine and 50 μg/ml of gentamycin. The other cells are cultured in an Earle's modified essential medium (EMEM; Gibco, Paisley, United Kingdom) together with 5% foetal calf serum inactivated by heat, 2 mM of glutamine, 50 U/ml of penicillin and 50 μg/ml of streptomycin. All the cell lines are cultured at 37° C. in a humidified atmosphere containing 95% air and 5% CO2.
(§2) Inhibition of the tumor cell line proliferation is determined using an MTT test. 1500 L1210 cells in a culture medium (according to the needs of the cell medium) are seeded in a well of a micro-well plate (tissue culture level: 96 wells, flat bottom) 24 hours before treatment with the compounds to be tested. For these dose-response studies, the cells are incubated with each of the compounds to be tested or their corresponding solvent (controls) for 48 hours over a final concentration range of 1.10^−10 to 1.10^−4 M. All the compounds are dissolved just before use in dimethylsulphoxide (DMSO) at a concentration of 50 mM. Other dilutions of the medicaments are carried out in the culture medium. The final concentration of DMSO never exceeds 0.2% (v/v). As controls, the solutions of medicaments are replaced with the solvent which is diluted successively in the same way as the compounds to be tested.
(§3) After the incubation period, the labeling reagent MTT (3-[4,5-dimethylthiazol-2-yl]-2,5-diphenyltetrazolium bromide; Thiazol blue, Sigma M 565, Sigma, St Louis, Mo.) is added at a final concentration of 0.3 mg/ml to each well. The cells are incubated for 4 hours at 37° C. in a humidified atmosphere. This stage allows the mitochondrial dehydrogenase of the living cells to convert the yellow tetrazolium salt MTT into crimson formazan crystals. The supernatant part is eliminated and the formazan crystals formed are solubilized with DMSO. The resultant coloured solution is quantified by absorbance at 570 nm by using a multi-cuvette scanning spectrophotometer. The data concerning the proliferation is expressed as a percentage of living cells in the treated wells, divided by the living cells in the controls. Each point represents the average of three independent experiments, each experiment represents six determinations.
(§4) For the other cell lines (HCT15, LOVO, A549, A172, U373, U87), 1000 to 2000 cells are seeded in the well of a micro-well plate 24 hours before medicinal treatment. […]
(§5) The results are expressed as percentages of the calculated proliferation by the optical density (OD) of the cells treated with a medicament divided by the OD of the control cells (cells treated with DMSO). As represented in Table II, the compounds to be tested have inhibited the proliferation of cells in a dose-dependent manner.

[2] = tested on: U87 (human glioblastoma); assay: Test on cell proliferation (MTT test), U87; settings: 72 hours
Description: as §1, §2, §3, §4, §5

[3] = tested on: A172 (human glioblastoma); assay: Test on cell proliferation (MTT test), A172; settings: 72 hours
Description: as §1, §2, §3, §4, §5

[4] = tested on: L1210 (mouse lymphocytic leukemia); assay: Test on cell proliferation (MTT test), L1210; settings: 48 hours
Description: as §1, §2, §3, §5

[5] = tested on: U373 (human glioblastoma); assay: Test on cell proliferation (MTT test), U373; settings: 72 hours
Description: as §1, §2, §3, §4, §5

CCc1c2c(nc3ccccc13)-c1cc(C(O)(CC)CC(=O)O)c(CO)c(=O)n1C2 (centres unmarked) [Example 10, 3-[12-ethyl-8-(hydroxymethyl)-9-oxo-9,11-dihydroindolizino[1,2-b]quinolin-7-yl]-3-hydroxypentanoic acid]
PERCENTAGE OF CELL PROLIFERATION ([1]; 0.1 nM): 71.00% | PERCENTAGE OF CELL PROLIFERATION ([1]; 1 nM): 76.00% | PERCENTAGE OF CELL PROLIFERATION ([1]; 10 nM): 71.00% | PERCENTAGE OF CELL PROLIFERATION ([1]; 100 nM): 56.00% | PERCENTAGE OF CELL PROLIFERATION ([1]; 1 000 nM): 36.00% | PERCENTAGE OF CELL PROLIFERATION ([1]; 10 000 nM): 22.00% | PERCENTAGE OF CELL PROLIFERATION ([1]; 100 000 nM): 7.00% | PERCENTAGE OF CELL PROLIFERATION ([2]; 0.1 nM): 96.00% | PERCENTAGE OF CELL PROLIFERATION ([2]; 1 nM): 79.00% | PERCENTAGE OF CELL PROLIFERATION ([2]; 10 nM): 89.00% | PERCENTAGE OF CELL PROLIFERATION ([2]; 100 nM): 17.00% | PERCENTAGE OF CELL PROLIFERATION ([2]; 1 000 nM): 6.00% | PERCENTAGE OF CELL PROLIFERATION ([2]; 10 000 nM): 5.00% | PERCENTAGE OF CELL PROLIFERATION ([2]; 100 000 nM): 2.00% | PERCENTAGE OF CELL PROLIFERATION ([3]; 0.1 nM): 93.00% | PERCENTAGE OF CELL PROLIFERATION ([3]; 1 nM): 92.00% | PERCENTAGE OF CELL PROLIFERATION ([3]; 10 nM): 91.00% | PERCENTAGE OF CELL PROLIFERATION ([3]; 100 nM): 60.00% | PERCENTAGE OF CELL PROLIFERATION ([3]; 1 000 nM): 39.00% | PERCENTAGE OF CELL PROLIFERATION ([3]; 10 000 nM): 15.00% | PERCENTAGE OF CELL PROLIFERATION ([3]; 100 000 nM): 3.00% | PERCENTAGE OF CELL PROLIFERATION ([4]; 0.1 nM): 91.51% | PERCENTAGE OF CELL PROLIFERATION ([4]; 1 nM): 97.94% | PERCENTAGE OF CELL PROLIFERATION ([4]; 10 nM): 89.28% | PERCENTAGE OF CELL PROLIFERATION ([4]; 100 nM): 67.32% | PERCENTAGE OF CELL PROLIFERATION ([4]; 1 000 nM): 31.51% | PERCENTAGE OF CELL PROLIFERATION ([4]; 10 000 nM): 19.78% | PERCENTAGE OF CELL PROLIFERATION ([4]; 100 000 nM): 3.65% | PERCENTAGE OF CELL PROLIFERATION ([5]; 0.1 nM): 96.00% | PERCENTAGE OF CELL PROLIFERATION ([5]; 1 nM): 104.00% | PERCENTAGE OF CELL PROLIFERATION ([5]; 10 nM): 87.00% | PERCENTAGE OF CELL PROLIFERATION ([5]; 100 nM): 35.00% | PERCENTAGE OF CELL PROLIFERATION ([5]; 1 000 nM): 20.00% | PERCENTAGE OF CELL PROLIFERATION ([5]; 10 000 nM): 10.00% | PERCENTAGE OF CELL PROLIFERATION ([5]; 100 000 nM): 2.00%
